# From patent publication US6806359B1, “Hormone receptor compositions and methods” (The Salk Institute for Biological Studies, priority 1986, dated 2004)
# Assays:
# rTR alpha = target: T1, rTR alpha (Rattus norvegicus, UniProt P63059); assay: ^125I-T3 binding to in vitro translated rTR alpha (Scatchard and competition); settings: excess competitor
# T1 construct: made in house; host or cells: rabbit reticulocyte lysate (SP6 transcripts of rbeA12B)
# T1 sequence (P63059 1-410 isoform P63059-2): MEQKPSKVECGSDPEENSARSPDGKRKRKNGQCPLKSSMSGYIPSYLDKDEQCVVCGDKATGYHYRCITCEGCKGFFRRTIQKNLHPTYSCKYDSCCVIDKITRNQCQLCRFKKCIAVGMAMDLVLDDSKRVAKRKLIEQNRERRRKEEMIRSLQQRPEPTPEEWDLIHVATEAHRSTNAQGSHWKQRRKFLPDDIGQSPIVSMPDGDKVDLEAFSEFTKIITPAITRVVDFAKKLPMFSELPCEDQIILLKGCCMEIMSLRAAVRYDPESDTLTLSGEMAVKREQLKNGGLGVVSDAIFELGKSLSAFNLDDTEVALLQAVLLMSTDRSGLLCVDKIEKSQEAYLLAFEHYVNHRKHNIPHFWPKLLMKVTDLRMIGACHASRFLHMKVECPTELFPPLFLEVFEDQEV
# Excerpt: In vitro translation and thyroid hormone binding of rTR alpha FIG. 69 rTR alpha was transcribed in vitro and translated in a rabbit reticulocyte lysate. […] Lane 1, no added RNA; lane 2, rbeA12, which contains the entire 5′ untranslated region; lane 3, rbeA12B, which contains only 97 bp of 5′ untranslated sequence. […] Samples from rbeA12B programmed lysates were mixed with increasing concentrations of unlabeled thyroid hormone or analogs to compete with labeled hormone. […] In vitro transcription and translation and hormone binding were performed as described (22, 23).
# 23. For in vitro transcription, the entire EcoRI insert of rbeA12 was cloned into pGEM1 (Promega Biotec). […] For thyroid hormone binding, transcriptions were performed with SP6 polymerase and 5 to 10 micrograms of rbeA12B linearized with SstI. […] Thyroid hormone binding for both the Scatchard and competition analyses were determined in the same manner, except that unlabeled protein was used for the Scatchard analysis. […] Specific hormone binding was determined by adding a 1000-fold excess of unlabeled hormone and assayed by counting radioactivity eluting in the excluded volume from a Sephadex G-25 fine (Pharmacia) 0.9-by 4.0-cm. column.
# hMR = target: T2, hMR (Homo sapiens, UniProt P08235); assay: [^3H]aldosterone binding and steroid competition in extracts of pRShMR-transfected COS cells; set-up: expressed in transfected cells; host or cells: COS cells transfected with pRShMR (DEAE-dextran); settings: 1-, 10-, or 100-fold molar excess of unlabeled steroid
# T2 sequence (P08235 1-984): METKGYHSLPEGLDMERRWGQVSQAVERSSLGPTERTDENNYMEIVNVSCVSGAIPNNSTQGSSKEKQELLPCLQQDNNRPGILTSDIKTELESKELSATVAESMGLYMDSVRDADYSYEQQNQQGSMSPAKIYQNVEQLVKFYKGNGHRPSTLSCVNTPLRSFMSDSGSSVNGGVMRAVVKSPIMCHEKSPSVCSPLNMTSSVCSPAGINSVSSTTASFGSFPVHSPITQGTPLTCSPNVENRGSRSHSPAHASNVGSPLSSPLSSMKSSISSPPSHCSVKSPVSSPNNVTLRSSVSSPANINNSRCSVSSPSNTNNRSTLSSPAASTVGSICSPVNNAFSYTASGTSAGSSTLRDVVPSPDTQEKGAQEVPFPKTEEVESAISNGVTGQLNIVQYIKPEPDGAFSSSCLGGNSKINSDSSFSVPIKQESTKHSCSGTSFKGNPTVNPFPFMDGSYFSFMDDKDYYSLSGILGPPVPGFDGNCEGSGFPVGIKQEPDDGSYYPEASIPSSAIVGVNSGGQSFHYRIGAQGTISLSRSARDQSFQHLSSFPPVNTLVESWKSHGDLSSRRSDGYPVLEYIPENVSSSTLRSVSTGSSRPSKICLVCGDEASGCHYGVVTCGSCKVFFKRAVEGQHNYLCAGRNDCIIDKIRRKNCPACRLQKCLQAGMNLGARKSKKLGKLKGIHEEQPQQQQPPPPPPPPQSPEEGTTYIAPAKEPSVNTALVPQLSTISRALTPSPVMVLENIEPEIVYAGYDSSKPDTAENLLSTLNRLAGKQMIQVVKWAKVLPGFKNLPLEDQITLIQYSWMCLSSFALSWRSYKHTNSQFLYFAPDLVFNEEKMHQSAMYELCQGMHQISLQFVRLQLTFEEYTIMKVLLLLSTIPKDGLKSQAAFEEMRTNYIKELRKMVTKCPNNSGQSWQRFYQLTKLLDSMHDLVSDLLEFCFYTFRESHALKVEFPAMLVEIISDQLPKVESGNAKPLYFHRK
# Protocol: Ligand specificity of the hMR protein was determined by preparing cytosol extracts from COS cells transfected with pRShMR. Two days after transfection, cells were harvested, and hormone binding was measured by a dextran-treated charcoal assay. […] This provided a measure of the relative affinity of each of these steroids for hMR.
# Steroid-binding properties of expressed hMR. FIG. 38 Structure of pRShMR, the hMR expression plasmid (41). […] Each point was assayed in triplicate with 100 micrograms of extract protein in a 200-microliter incubation at 0° C. for 2.5 hours. […] The results of two independent trials representative of these competition experiments are shown. Cold competitor was present in 1-, 10-, or 100-fold molar excess. […] Subconfluent COS cells were transfected by the DEAE-dextran method (42) with 10 micrograms of pRShMR per dish. Cells were maintained for 2 days in DMEM (Dulbecco's modification of Eagle's minimum essential medium) with 5 percent charcoal-treated fetal calf serum, then harvested in […] tris-HCl. (pH 7.8), 10 nM NaCl, 1 mM EDTA, 10 mM Na2MoO4, 5 mM dithiothreitol, antipain (5 microgram/ml), leupeptin (5 microgram/ml), and 500 microM phenylmethylsulfonyl fluoride. After centrifugation at 15,000×g for 10 minutes, extracts were adjusted to 100 mM NaCl and 5 percent glycerol before binding. […] After centrifugation at 15,000×g for 2 minutes at 40C, tritium in supernatant was quantified by liquid scintillation spectrophotometry.
compound,measurement,setting,value
C[C@]12CC[C@@H]3c4ccc(O)cc4CC[C@H]3[C@@H]1CC[C@@H]2O [oestradiol],competition for T3 binding to rTR alpha by excess compound,rTR alpha,no competition
same,relative affinity for hMR by competition with 5 nM [^3H]aldosterone (in words),hMR,competed very poorly
